Measured values: ChEMBL document CHEMBL1127517 (J Med Chem, 1994)

Tests used:
[1] = tested on: Rattus norvegicus; assay: Distribution of radio activity in tissues of unfasted male rats was measured as regional uptake at 30 min of time in cortex after intravenous administration; type: ADME, organism-based; details: in vivo, 0.5 h
[2] = tested on: Rattus norvegicus; assay: Distribution of radio activity in tissues of unfasted male rats was measured at 30 min of time in skin after intravenous administration; type: ADME, organism-based; details: in vivo, 0.5 h
[3] = tested on: Rattus norvegicus; assay: Distribution of radio activity in tissues of unfasted male rats was measured at 2 min of time in thyroid after intravenous administration; type: ADME, organism-based, Thyroid gland; details: in vivo
[4] = tested on: Rattus norvegicus; assay: Distribution of radio activity in tissues of unfasted male rats was measured as regional uptake at 120 min of time in striatum after intravenous administration; type: ADME, organism-based; details: in vivo, 2 h
[5] = target: Sodium-dependent dopamine transporter (Rattus norvegicus, UniProt P23977); assay: Inhibitory constant towards reuptake of [125I]-13 from dopamine transporter in rat striatal membranes; type: cell membranes, Membrane
[6] = tested on: Rattus norvegicus; assay: Distribution of radio activity in tissues of unfasted male rats was measured as at 2 min of time in lung after intravenous administration; type: ADME, organism-based; details: in vivo
[7] = tested on: Rattus norvegicus; assay: Distribution of radio activity in tissues of unfasted male rats was measured at 30 min of time in liver after intravenous administration; type: ADME, organism-based; details: in vivo, 0.5 h
[8] = tested on: Rattus norvegicus; assay: Distribution of radio activity in tissues of unfasted male rats was measured at 2 min of time in skin after intravenous administration; type: ADME, organism-based; details: in vivo
[9] = tested on: Rattus norvegicus; assay: Distribution of radio activity in tissues of unfasted male rats was measured as regional uptake at 30 min of time in ST/CB after intravenous administration; type: ADME, organism-based; details: in vivo, 0.5 h
[10] = tested on: Rattus norvegicus; assay: Distribution of radio activity in tissues of unfasted male rats was measured at 60 min of time in brain after intravenous administration; type: ADME, organism-based; details: in vivo, 1 h
[11] = tested on: Rattus norvegicus; assay: Distribution of radio activity in tissues of unfasted male rats was measured at 120 min of time in heart after intravenous administration; type: ADME, organism-based; details: in vivo, 2 h
[12] = tested on: Rattus norvegicus; assay: Distribution of radio activity in tissues of unfasted male rats was measured as regional uptake at 30 min of time in striatum after intravenous administration; type: ADME, organism-based; details: in vivo, 0.5 h
[13] = tested on: Rattus norvegicus; assay: Distribution of radio activity in tissues of unfasted male rats was measured at 120 min of time in brain after intravenous administration; type: ADME, organism-based; details: in vivo, 2 h
[14] = tested on: Rattus norvegicus; assay: Distribution of radio activity in tissues of unfasted male rats was measured at 30 min of time in muscle after intravenous administration; type: ADME, organism-based, Muscle tissue; details: in vivo, 0.5 h
[15] = tested on: Rattus norvegicus; assay: Distribution of radio activity in tissues of unfasted male rats was measured at 120 min of time in muscle after intravenous administration; type: ADME, organism-based, Muscle tissue; details: in vivo, 2 h
[16] = tested on: Rattus norvegicus; assay: Distribution of radio activity in tissues of unfasted male rats was measured at 2 min of time in kidney after intravenous administration; type: ADME, organism-based; details: in vivo
[17] = tested on: Rattus norvegicus; assay: Distribution of radio activity in tissues of unfasted male rats was measured as regional uptake at 60 min of time in striatum after intravenous administration; type: ADME, organism-based; details: in vivo, 1 h
[18] = tested on: Rattus norvegicus; assay: Distribution of radio activity in tissues of unfasted male rats was measured at 2 min of time in heart after intravenous administration; type: ADME, organism-based; details: in vivo
[19] = tested on: Rattus norvegicus; assay: Distribution of radio activity in tissues of unfasted male rats was measured as regional uptake at 60 min of time in cortex after intravenous administration; type: ADME, organism-based; details: in vivo, 1 h
[20] = tested on: Rattus norvegicus; assay: Distribution of radio activity in tissues of unfasted male rats was measured at 60 min of time in skin after intravenous administration; type: ADME, organism-based; details: in vivo, 1 h
[21] = tested on: Rattus norvegicus; assay: Distribution of radio activity in tissues of unfasted male rats was measured at 60 min of time in muscle after intravenous administration; type: ADME, organism-based, Muscle tissue; details: in vivo, 1 h
[22] = tested on: Rattus norvegicus; assay: Distribution of radio activity in tissues of unfasted male rats was measured as regional uptake at 2 min of time in cerebellum after intravenous administration; type: ADME, organism-based; details: in vivo
[23] = tested on: Rattus norvegicus; assay: Distribution of radio activity in tissues of unfasted male rats was measured as regional uptake at 120 min of time in ST/CB after intravenous administration; type: ADME, organism-based; details: in vivo, 2 h
[24] = tested on: Rattus norvegicus; assay: Distribution of radio activity in tissues of unfasted male rats was measured at 2 min of time in blood after intravenous administration; type: ADME, organism-based; details: in vivo
[25] = tested on: Rattus norvegicus; assay: Distribution of radio activity in tissues of unfasted male rats was measured as regional uptake at 60 min of time in ST/CB after intravenous administration; type: ADME, organism-based; details: in vivo, 1 h
[26] = tested on: Rattus norvegicus; assay: Distribution of radio activity in tissues of unfasted male rats was measured at 30 min of time in kidney after intravenous administration; type: ADME, organism-based; details: in vivo, 0.5 h
[27] = tested on: Rattus norvegicus; assay: Distribution of radio activity in tissues of unfasted male rats was measured as regional uptake at 120 min of time in cerebellum after intravenous administration; type: ADME, organism-based; details: in vivo, 2 h
[28] = tested on: Rattus norvegicus; assay: Distribution of radio activity in tissues of unfasted male rats was measured as regional uptake at 60 min of time in hippocampus after intravenous administration; type: ADME, organism-based; details: in vivo, 1 h
[29] = tested on: Rattus norvegicus; assay: Distribution of radio activity in tissues of unfasted male rats was measured at 120 min of time in liver after intravenous administration; type: ADME, organism-based; details: in vivo, 2 h
[30] = tested on: Rattus norvegicus; assay: Distribution of radio activity in tissues of unfasted male rats was measured as regional uptake at 60 min of time in cerebellum after intravenous administration; type: ADME, organism-based; details: in vivo, 1 h
[31] = tested on: Rattus norvegicus; assay: Distribution of radio activity in tissues of unfasted male rats was measured as regional uptake at 2 min of time in cortex after intravenous administration; type: ADME, organism-based; details: in vivo

Chain of Sodium-dependent dopamine transporter (P23977 whole entry): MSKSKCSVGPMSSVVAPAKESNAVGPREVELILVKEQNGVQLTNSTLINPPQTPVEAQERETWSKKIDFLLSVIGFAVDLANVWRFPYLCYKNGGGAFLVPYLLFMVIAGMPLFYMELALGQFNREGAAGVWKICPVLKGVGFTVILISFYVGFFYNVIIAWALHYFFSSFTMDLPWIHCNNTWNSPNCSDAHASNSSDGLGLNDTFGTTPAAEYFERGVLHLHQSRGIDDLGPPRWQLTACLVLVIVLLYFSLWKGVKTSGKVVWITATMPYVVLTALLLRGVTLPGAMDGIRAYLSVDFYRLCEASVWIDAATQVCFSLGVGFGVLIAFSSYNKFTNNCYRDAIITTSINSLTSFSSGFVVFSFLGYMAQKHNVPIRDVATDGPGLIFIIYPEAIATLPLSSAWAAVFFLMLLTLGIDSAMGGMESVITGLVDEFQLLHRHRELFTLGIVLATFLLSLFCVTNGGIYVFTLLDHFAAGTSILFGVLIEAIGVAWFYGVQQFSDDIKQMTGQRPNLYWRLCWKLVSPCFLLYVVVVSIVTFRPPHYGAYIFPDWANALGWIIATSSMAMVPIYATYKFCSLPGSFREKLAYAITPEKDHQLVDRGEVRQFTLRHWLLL

`COC(=O)C1C(c2ccc(Cl)cc2)CC2CCC1N2C/C=C/I` (stereo unspecified) was tested, and the Dose/g [1] was 0.22%, the Injected dose/organ [2] was 23.76% and the Injected dose/organ [3] was 0.06%. It also gave a Dose/g [4] of 0.61%, a Ki [5] of 3.2 nM and an Injected dose/organ [6] of 1.19%. It also gave an Injected dose/organ [7] of 3.72%, an Injected dose/organ [8] of 5.14% and a Dose/g [9] of 6.91%. For the same molecule, the Injected dose/organ [10] was 0.28%, the Injected dose/organ [11] was 0.11% and the Dose/g [12] was 1.67%. It also gave an Injected dose/organ [13] of 0.13%, an Injected dose/organ [14] of 18.54% and an Injected dose/organ [15] of 9.04%. It also gave an Injected dose/organ [16] of 3.11%, a Dose/g [17] of 1.23% and an Injected dose/organ [18] of 1.05%. The Dose/g [19] was 0.08%, the Injected dose/organ [20] was 23.9% and the Injected dose/organ [21] was 12.14%. The Dose/g [22] was 0.97%, the Dose/g [23] was 16.5% and the Injected dose/organ [24] was 2.98%. It also gave a Dose/g [25] of 15.9%, an Injected dose/organ [26] of 0.86% and a Dose/g [27] of 0.037%. It also gave a Dose/g [28] of 0.095%, an Injected dose/organ [29] of 1.44% and a Dose/g [30] of 0.077%. For the same molecule, the Dose/g [31] was 1.15%.
